The results in this text go back to patent publication US7638509B2, “Diene compounds and formulations” (priority 2003, dated 2009).

The test system of one assay is estrogen receptor (ER). Kind of assay: Steroid hormone specificity, ER/ERE-Luc in PC-3 cells. It counts as cell-based, human. To be noted: PC-3, ER/ERE-Luc, ADEK at 0.01 mM, 0.1 mM and 1.0 mM, 24 h. The protocol:
(§1) Cell Culture, Transfection, and Reporter Gene Assay. The human prostate cancer cell lines, LNCaP, PC-3, and DU145, and non-prostate cancer cell line COS-1 were maintained in RPMI or Dulbecco's modified Eagle's medium (DMEM) (Life Technologies) supplemented with 10% fetal bovine serum (FBS). Transfections and luciferase (Luc) assays were performed as previously described (Miyamoto, H., Yeh, S., Wilding, G. & Chang, C. (1998) Proc. Natl. Acad. Sci. USA 95, 7379-7384; Miyamoto, H., Rahman, M., Takatera, H., Kang, H.-Y., Yeh, S., Chang, H.-C., Nishimura, K., Fujimoto, N. & Chang, C. (2002) J. Biol. Chem. 277, 4609-4617). Briefly, cells seeded to reach a density of 50-60% confluence in 12 well tissue culture plates were transfected with 1.5 μg of DNA according to “SuperFect transfection” instructions (Qiagen). […] The Luc activity was determined using a Dual-Luciferase Reporter Assay System (Promega) and luminometer.
(§2) Steroid Hormone Specificity of ADEK. To characterize the steroid hormone activity of ADEK, PC-3 cells were transfected with steroid receptor/reporter (progesterone receptor (PR)/MMTV-Luc, glucocorticoid receptor (GR)/MMTV-Luc, or estrogen receptor (ER)/ERE-Luc) and analyzed for expression of the Luc reporter gene. […] The Luc activity was measured relative to that of ETOH treatment (set as 1-fold). […]

The target of the next assay is T1, AR (Homo sapiens, UniProt P10275).
T1 construct: expressed in transfected cells; host or cells: PC-3
T1 sequence (P10275 1-920): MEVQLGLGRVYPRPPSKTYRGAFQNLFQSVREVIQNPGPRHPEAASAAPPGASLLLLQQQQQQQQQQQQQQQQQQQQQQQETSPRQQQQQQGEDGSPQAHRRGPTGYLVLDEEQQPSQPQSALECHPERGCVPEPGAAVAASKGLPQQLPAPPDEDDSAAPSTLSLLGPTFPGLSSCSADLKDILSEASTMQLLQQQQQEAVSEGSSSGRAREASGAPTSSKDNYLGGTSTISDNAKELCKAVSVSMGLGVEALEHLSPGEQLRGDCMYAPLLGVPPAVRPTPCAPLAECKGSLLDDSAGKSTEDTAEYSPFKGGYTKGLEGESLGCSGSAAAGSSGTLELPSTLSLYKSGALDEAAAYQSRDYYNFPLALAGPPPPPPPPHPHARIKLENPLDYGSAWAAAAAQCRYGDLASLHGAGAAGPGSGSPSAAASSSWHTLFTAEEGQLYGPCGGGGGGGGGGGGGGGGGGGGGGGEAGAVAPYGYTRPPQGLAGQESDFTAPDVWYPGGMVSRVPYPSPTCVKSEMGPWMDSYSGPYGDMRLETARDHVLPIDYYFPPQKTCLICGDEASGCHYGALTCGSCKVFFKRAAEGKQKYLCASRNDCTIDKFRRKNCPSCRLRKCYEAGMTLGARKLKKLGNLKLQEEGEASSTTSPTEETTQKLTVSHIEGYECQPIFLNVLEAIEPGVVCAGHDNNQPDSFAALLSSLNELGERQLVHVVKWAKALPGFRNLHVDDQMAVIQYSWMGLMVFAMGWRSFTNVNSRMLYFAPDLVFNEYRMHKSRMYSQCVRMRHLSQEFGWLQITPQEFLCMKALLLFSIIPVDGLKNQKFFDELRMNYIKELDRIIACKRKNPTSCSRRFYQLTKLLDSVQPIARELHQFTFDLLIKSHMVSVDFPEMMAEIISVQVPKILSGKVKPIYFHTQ
The experiment in a line: Steroid hormone specificity, androgenic activity in PC-3 cells. The assay is classed as cell-based. To be noted: PC-3, ADEK at 0.01 mM, 0.1 mM and 1.0 mM, 24 h. The method, then: as §1, §2

The target in assay [1] is T2, wild-type AR (Homo sapiens, UniProt P10275).
T2 sequence (P10275 1-920): T1 sequence (P10275 1-920)
The experiment in a line: AR transcription, MMTV-Luc reporter in COS-1 cells co-transfected with pSG5-AR. It counts as cell-based. On the set-up: expressed in transfected cells; host or cells: COS-1. The method, then: Cell Culture, Transfection, and Reporter Gene Assay. The human prostate cancer cell lines, LNCaP, PC-3, and DU145, and non-prostate cancer cell line COS-1 were maintained in RPMI or Dulbecco's modified Eagle's medium (DMEM) (Life Technologies) supplemented with 10% fetal bovine serum (FBS). […] Briefly, cells seeded to reach a density of 50-60% confluence in 12 well tissue culture plates were transfected with 1.5 μg of DNA according to “SuperFect transfection” instructions (Qiagen). After 2-3 h incubation, cells were treated with medium supplemented with charcoal-stripped FBS containing either ethanol or ligands for 24 h. The cells were then harvested and whole cell extracts were used for Luc assay. The Luc activity was determined using a Dual-Luciferase Reporter Assay System (Promega) and luminometer.
The pSG5-AR was co-transfected in COS-1 cells. […] Values were obtained from the mean±SD of at least three determinations. DU145 cells were transfected with the pSG5-AR and MMTV-Luc in the presence or absence of pSG5-ARA70. […] Values were obtained for the mean±SD of at least three determinations.

Assay [2] addresses T2, wild-type AR. The experiment in a line: Competitive [3H]-R1881 ligand binding assay, extracts of COS-1 transfected with wild-type AR. The settings on record: 1 nM [3H]-R1881, unlabeled ligand 1-10,000 nM, relative to DHT. On the set-up: expressed in transfected cells; host or cells: COS-1. The method, then: Ligand Binding Assay. Whole cell extracts from COS-1 with transient transfection of pSG5-AR, or LNCaP without transfection, were incubated for 2 h at 37° C. with 1 nM [^3H]-synthetic androgen methyltrienolone (R1881) in the presence and absence of increasing concentrations (1-10,000 nM) of unlabeled ligands. Then, hydroxyapatite (Bio-Rad) was added and stirred for 15 min at 4° C. After centrifugation and washing, radioactivity was determined by scintillation counting.
Clinically available antiandrogens have an affinity for the AR, allowing a competition with androgens for binding. To determine whether ADEK has this common feature of AR antagonists, the competitive androgen binding assay was performed.

In the case of `CC(=O)O[C@H]1C=C[C@@]2(C)C(=CC[C@@H]3[C@@H]2CC[C@@]2(C)[C@H]3CCC23OCCO3)C1` [ADEK, 3β-acetoxy-17,17-ethylenedioxyandrosta-1,5-diene], in the assay with estrogen receptor (ER), the “estrogenic activity (in words)” value is recorded as “some estrogenic activity”. For the same compound, on AR, the “androgenic activity (in words)” value is given as “no significant”. In addition, the “relative Luc activity (DHT control = 100%)” value on wild-type AR [1] (COS-1, 1 nM DHT, compound at 0.01 μM) is on record as “about 75%”; at wild-type AR [1] (COS-1, 1 nM DHT, compound at 0.1 μM) it was “about 60%”. Moreover, the “DHT-induced wild-type AR transcription suppressed to (relative Luc activity, DHT = 100%)” value on wild-type AR [1] (COS-1, 1 nM DHT, compound at 1 μM) is on record as 21%. In addition, the “androgenic activity on wild-type AR transcription (in words)” value on wild-type AR [1] (COS-1, compared with HF and casodex) was “lower androgenic activity”. Moreover, the “RBA in COS-1 with AR” value on wild-type AR [2] was 6.0.
